From patent US20250282802A1, “P[…] AND METHODS” (priority 2020, published 2025) come the findings set out here.

For this assay, the system named is Candida albicans SN250. Kind of assay: Fungicidal bioassay (MIC), Candida albicans. The class given is cell-based. As for the experimental part: Bacteria, plasmids and growth conditions. Bacterial strains, plasmids and primers used in this study are described in Table 3 and 4. General chemical and molecular biology reagents were purchased from Sigma-Aldrich or New England Biolabs. Phosphinothricin (glufosinate) was purchased from GoldBio (CAS #77182-82-2). Standard bacterial growth media were prepared as described (Current Protocols in Molecular Biology 2019, 125:e81, e82, e83). E. coli strains were typically grown at 37° C.; P. ananatis strains were typically grown at 30° C. Phosphonate induction media (PIM) was prepared as follows: 8.37 g/L MOPS, 0.72 g/L Tricine, 0.58 g/L NaCl, 0.51 g/L NH4Cl, 1.6 g/L KOH, 0.1 g/L MgCl2·6H2O, 0.05 g/L K2SO4, 0.2 g/L K2HIPO4 were dissolved H2O and steam sterilized for 20 min at 121° C. […]
Fungicidal bioassays. […] Minimum Inhibitory Concentration (MIC) was determined visually by finding the concentration of compound at which there was no visual difference between that concentration and the uninoculated media control.

For the compound `O=C(O)/C=C(\C(=O)O)C(O)P(=O)(O)O` (centres unmarked) [pantaphos, 2-(hydroxy(phosphono)methyl)maleate], the MIC (Candida albicans, SN250, RPMI 1640 medium, 48 hrs growth, CLSI, read-out: MIC, Rich medium) was greater than 125 µM. For the same compound, the “effect on the growth of fungi, in words” value (rich or minimal media) is reported as “no effect on the growth”.
